Consider two molecules from article PMC6651613, “Identification and Characterization of trans-Isopentenyl Diphosphate Synthases Involved in Herbivory-Induced Volatile Terpene Formation in Populus trichocarpa” (Molecules, 2019).

What all share (test): LC-MS/MS product analysis
Common to all, as to type: biochemical
Settings in all cases: 50 uM IPP and 50 uM DMAPP, 10 mM MgCl2, 0.1 mM MnCl2, pH 7.2, 30 °C, 1 h

The target in one assay is T1, PtFPPS1 (Populus trichocarpa, UniProt A0A514TNK7).
T1 construct: full-length ORF, N-terminal His tag (pASK-IBA37+), E. coli TOP10, Ni-NTA purified; cloning primer encodes MADLKSTF
T1 sequence (A0A514TNK7 1-342): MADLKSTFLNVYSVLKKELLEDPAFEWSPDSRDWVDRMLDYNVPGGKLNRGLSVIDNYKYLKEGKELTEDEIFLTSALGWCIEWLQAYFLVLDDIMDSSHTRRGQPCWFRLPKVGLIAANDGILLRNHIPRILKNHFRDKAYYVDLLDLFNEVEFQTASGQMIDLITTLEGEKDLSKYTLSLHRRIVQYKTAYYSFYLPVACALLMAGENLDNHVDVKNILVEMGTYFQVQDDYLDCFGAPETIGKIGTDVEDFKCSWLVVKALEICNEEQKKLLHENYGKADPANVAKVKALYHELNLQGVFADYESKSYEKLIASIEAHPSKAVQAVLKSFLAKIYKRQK

Assay [1] has as its target T2, PtGPPS2.LSU + PtGPPS.SSU1 (Populus trichocarpa, UniProt A0A514TNS4).
T2 construct: separately purified LSU (delta72) and SSU1 (delta41) mixed; C-terminal His tags, E. coli TOP10; heterodimer proposed, not isolated; with Geranyl diphosphate synthase small subunit 1

For a further assay, the target named is T3, PtGPPS1.LSU (Populus trichocarpa, UniProt A0A514TNQ6).
T3 construct: N-terminally truncated ORF (delta71, signal peptide removed), C-terminal His tag (pASK-IBA33+), E. coli TOP10, Ni-NTA purified; cloning primer encodes MPTFDFKSY

The target of the next assay is T4, PtGPPS2.LSU (Populus trichocarpa, UniProt A0A514TNS4).
T4 construct: N-terminally truncated ORF (delta72, signal peptide removed), C-terminal His tag (pASK-IBA33+), E. coli TOP10, Ni-NTA purified; cloning primer encodes MPTFDFKSY

For assay [2], the target named is T5, PtGPPS1.LSU + PtGPPS.SSU1 (Populus trichocarpa, UniProt A0A514TNQ6).
T5 construct: equal amounts of separately purified LSU (delta71) and SSU1 (delta41) mixed; C-terminal His tags, E. coli TOP10; heterodimer proposed, not isolated; with Geranyl diphosphate synthase small subunit 1
T5 sequence (A0A514TNQ6 70-365): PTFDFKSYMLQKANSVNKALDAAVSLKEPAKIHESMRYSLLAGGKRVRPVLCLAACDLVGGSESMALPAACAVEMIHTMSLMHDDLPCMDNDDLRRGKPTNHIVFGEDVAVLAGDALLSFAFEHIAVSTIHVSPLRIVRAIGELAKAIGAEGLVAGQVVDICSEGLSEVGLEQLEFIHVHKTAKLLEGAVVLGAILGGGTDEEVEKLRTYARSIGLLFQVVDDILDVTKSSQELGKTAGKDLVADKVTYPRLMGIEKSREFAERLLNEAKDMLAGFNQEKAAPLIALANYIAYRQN
T5 sequence (A0A514TNK9 42-312 partner): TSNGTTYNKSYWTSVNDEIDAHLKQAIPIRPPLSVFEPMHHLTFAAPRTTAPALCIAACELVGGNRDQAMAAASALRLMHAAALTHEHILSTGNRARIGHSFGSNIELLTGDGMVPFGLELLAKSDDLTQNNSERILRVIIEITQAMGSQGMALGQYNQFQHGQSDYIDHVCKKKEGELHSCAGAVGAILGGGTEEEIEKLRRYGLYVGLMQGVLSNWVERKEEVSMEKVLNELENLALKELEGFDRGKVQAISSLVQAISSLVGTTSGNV

T2 sequence (A0A514TNS4 71-366): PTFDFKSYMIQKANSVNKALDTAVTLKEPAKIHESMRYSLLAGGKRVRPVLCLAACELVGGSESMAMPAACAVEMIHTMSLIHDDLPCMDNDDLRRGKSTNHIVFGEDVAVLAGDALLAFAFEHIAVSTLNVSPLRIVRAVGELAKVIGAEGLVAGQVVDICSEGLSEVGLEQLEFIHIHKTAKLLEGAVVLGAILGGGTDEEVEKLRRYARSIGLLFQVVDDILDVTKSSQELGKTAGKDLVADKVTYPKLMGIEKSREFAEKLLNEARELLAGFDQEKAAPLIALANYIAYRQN
T2 sequence (A0A514TNK9 42-312 partner): as the sequence (A0A514TNK9 42-312 partner) above
T4 sequence (A0A514TNS4 71-366): as the sequence (A0A514TNS4 71-366) above
T3 sequence (A0A514TNQ6 70-365): as the sequence (A0A514TNQ6 70-365) above

For the molecule `CC(C)=CCOP(=O)(O)OP(=O)(O)O` [DMAPP], the LC-MS/MS product analysis result at PtFPPS1 is “PtFPPS1 catalyzes the condensation of IPP and DMAPP to FPP and traces of GGPP”; in assay [1] it was “incubated with IPP and DMAPP either in the presence (black bars) or absence”; at PtGPPS1.LSU, “produced GPP and GGPP when tested with IPP and DMAPP as substrates”; on PtGPPS2.LSU, “produced GPP and GGPP when tested with IPP and DMAPP as substrates”; in assay [2], “incubated with IPP and DMAPP either in the presence (black bars) or absence”.
With `C=C(C)CCOP(=O)(O)OP(=O)(O)O` [IPP], the LC-MS/MS product analysis result at PtFPPS1 was “PtFPPS1 catalyzes the condensation of IPP and DMAPP to FPP and traces of GGPP”; in assay [1] it was “incubated with IPP and DMAPP either in the presence (black bars) or absence”; at PtGPPS1.LSU, “produced GPP and GGPP when tested with IPP and DMAPP as substrates”; on PtGPPS2.LSU it was “produced GPP and GGPP when tested with IPP and DMAPP as substrates”; in assay [2], “incubated with IPP and DMAPP either in the presence (black bars) or absence”.
